Where two headings read alike, the source gives them in different places. Where no end group is shown, it is not given here.
Experiments:
[1] = test system: human red blood cells (hRBCs); assay: Hemolytic assay; assay type: cell-based; settings: 2 h, 37 °C
How it was run: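 Percent hemolysis uses PBS as 0% and 1% Triton X-100 as 100% references, from supernatant absorbance at 567 nm. Red cells (4% in PBS, equal volume) exposed 2 h at 37 °C without agitation to 2-fold serially diluted peptide.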

[2] = test system: K. pneumoniae (ATCCBAA-1705); assay: MIC, standard microtiter dilution (CLSI); assay type: cell-based, Klebsiella pneumoniae; settings: broth microdilution (CLSI), CAMHB, 37 °C, 24 h
How it was run: (§1)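 In this CLSI-recommended assay, peptides were serially diluted twofold and combined with bacteria at 10^6 CFU/mL in cation-adjusted Mueller Hinton Broth.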

E. coli (ATCC 25922) = settings: broth microdilution (CLSI), CAMHB, 37 °C, 24 h
How it was run: as §1

MRSA (ATCC BAA-1556) = settings: broth microdilution (CLSI), CAMHB, 37 °C, 24 h
How it was run: as §1

[3] = Relative hydrophobicity as RP-HPLC retention time; assay type: physicochemical; settings: chromatographic, Phenomenex Luna C18 4 μm 150 × 4.6 mm, linear AB gradient 1% acetonitrile/min, 0.3 mL/min, A water 0.1% TFA, B acetonitrile 0.1% TFA, 25 °C
Protocol: The purity analysis of the peptides was conducted on a RP-HPLC system (Shimadzu; LC-20ADXR) by using a Phenomenex (Luna) analytical C18 column (4 μm, 150 × 4.6 mm). The mass of the purified peptides was determined in the positive-ion mode using Q-TOF LC/MS (Compass Hystar 4.1, Bruker, USA). The purity (>95%) and mass data of all the synthesized peptides are provided in the Supporting Information.
8. Comparative Hydrophobicity analysis
The purity of all synthesized peptides was determined using reverse phase analytical HPLC
(Shimadzu; LC-20ADXR). Below mentioned are the conditions used to conduct the purity
Column: Phenomenex (Luna), 4 um, C18, 150 × 4.6 mm
Mobile Phase: Buffer A-Water containing 0.1% TFA,
Buffer B-Acetonitrile containing 0.1% TFA
Figure S52. HPLC chromatogram of 6a.
(1 picture or pasted object on this page, not shown here)

[4] = CD spectroscopy, helicity; assay type: physicochemical; set-up: key to Δ[θ]222 induced by TFE / Δ[θ]222 induced by Liposomes: mean residue molar ellipticity, mdeg cm2/(dmol × res); settings: for [θ]222 mean residue molar ellipticity, TFE / [θ]222 mean residue molar ellipticity, Liposomes / [θ]222 mean residue molar ellipticity, PBS: CD at 222 nm, 25 °C; for [θ]222 mean residue molar ellipticity, TFE: aqueous buffer containing 50% TFE; for [θ]222 mean residue molar ellipticity, Liposomes / Δ[θ]222 induced by Liposomes: bacterial membrane mimicking liposomes; for [θ]222 mean residue molar ellipticity, Liposomes: peptide:lipid molar ratio 1:1.05; for [θ]222 mean residue molar ellipticity, PBS: phosphate buffer saline pH 7.0; for Δ[θ]222 induced by TFE / Δ[θ]222 induced by Liposomes: difference to PBS; for Δ[θ]222 induced by TFE: 50% TFE; for % of helicity induced by TFE: increase in molar ellipticity at 222 nm in the presence of 50% TFE; for % of helicity induced by Liposomes: increase in molar ellipticity at 222 nm in the presence of liposomes;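 for % of helicity induced by Liposomes: share of the total helicity with liposomes gained over the same peptide in PBS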;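 for % of helicity induced by TFE: share of the total helicity in TFE gained over the same peptide in PBS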
Protocol: The CD spectra of peptides were recorded using a Jasco J-1500 CD spectrophotometer (Jasco, Easton, MD) at 25 °C with a 1 mm path length cell. Wavelengths from 190 to 260 nm were scanned with 1.0 nm step resolution, 100 nm/min speed, 0.4 s response time, and 1 nm bandwidth. CD spectra of the peptides were collected and averaged over three scans in 10 mM sodium phosphate buffer (pH 7.2), helix-inducing solvent 50% TFE (v/v), and bacterial mimic liposomes (75 μM lipid). Spectra were corrected by subtracting a baseline spectrum containing only buffer or 50% TFE or liposomes. The mean residue molar ellipticity was calculated using the formula [drawing 3] where Ab222 is the absorbance observed at 222 nm, MRW is the mean residue molecular weight, C is the concentration in mg/mL, and L is the path length.
Table S1. RP-HPLC retention times and CD spectroscopy analysis of the selected peptides Peptide tR (min)a [θ]222b Δ[θ]222 induced by % of helicity inducedc by PBS TFE Liposomes TFE Liposomes TFE Liposomes […]
atR (min) denotes the retention time at 25°C by RP-HPLC. bThe mean residue molar ellipticity [θ] 222 (mdeg cm2/(dmol × res)) at 222 nm was measured at 25 °C in phosphate buffer saline (PBS, pH 7.0), in aqueous buﬀer containing 50% TFE (TFE), or in presence of bacterial membrane mimicking liposomes (peptide:lipid […]
c% helix induced is the increase in the molar ellipticity at 222 nm (in percentage) of a peptide in the presence of TFE or liposomes.

[5] = test system: P. aeruginosa (ATCC 27883); assay: MIC, standard microtiter dilution (CLSI); assay type: cell-based, Pseudomonas aeruginosa; settings: broth microdilution (CLSI), CAMHB, 37 °C, 24 h
How it was run: as §1

S. aureus (ATCC 29213) = assay: MIC, standard microtiter dilution (CLSI); assay type: cell-based; settings: broth microdilution (CLSI), CAMHB, 37 °C, 24 h
How it was run: as §1

[6] = hRBC suspension 4% in PBS, hemoglobin release at 567 nm, 1% Triton X-100 = 100%
[7] = value in parentheses (μM), hRBC 4% in PBS, 567 nm
[8] = 10^6 CFU/mL, highest MIC of three independent experiments in triplicate

Substance	HC50 (concentration at which 50% hemolysis was observed) [1, 6] [µg/mL]	HC50 (concentration at which 50% hemolysis was observed) [1, 7] [µM]	MIC, K. pneumoniae (ATCCBAA-1705) [2, 8] [µg/mL]	MIC, K. pneumoniae (ATCCBAA-1705) ([2]; value in parentheses (μM)) [µM]	MIC, E. coli (ATCC 25922) (E. coli (ATCC 25922); [8]) [µg/mL]	MIC, E. coli (ATCC 25922) (E. coli (ATCC 25922); value in parentheses (μM)) [µM]	MIC, MRSA (ATCC BAA-1556) (MRSA (ATCC BAA-1556); [8]) [µg/mL]	MIC, MRSA (ATCC BAA-1556) (MRSA (ATCC BAA-1556); value in parentheses (μM)) [µM]	tR, RP-HPLC retention time (measure of overall hydrophobicity) [3] [min]	[θ]222 mean residue molar ellipticity, TFE [4]	[θ]222 mean residue molar ellipticity, Liposomes [4]	[θ]222 mean residue molar ellipticity, PBS [4]	Δ[θ]222 induced by TFE [4]	Δ[θ]222 induced by Liposomes [4]	% of helicity induced by TFE [4] [%]	% of helicity induced by Liposomes [4] [%]	MIC, P. aeruginosa (ATCC 27883) [5, 8] [µg/mL]	MIC, P. aeruginosa (ATCC 27883) ([5]; value in parentheses (μM)) [µM]	MIC, S. aureus (ATCC 29213) (S. aureus (ATCC 29213); [8]) [µg/mL]	MIC, S. aureus (ATCC 29213) (S. aureus (ATCC 29213); value in parentheses (μM)) [µM]
Ac-KWAKKWAKWWKK-NH2 [6d]	345	201.15	100	58.30	100	58.30	100	58.30	32.81	-18432 mdeg cm2/(dmol × res)	-24274 mdeg cm2/(dmol × res)	-13464 mdeg cm2/(dmol × res)	-4968	-10810	26.95	44.53	100	58.30	50	29.15
Ac-KWIKKWIKWWKK-NH2 [7d]	160	88.92	25	13.89	12.5	6.95	6.2	3.45	38.75	-11272 mdeg cm2/(dmol × res)	-19755 mdeg cm2/(dmol × res)	-3826 mdeg cm2/(dmol × res)	-7446	-15929	66.05	80.63	12.5	6.95	6.2	3.45
Ac-KWLKKWLKWWKK-NH2 [8d]	145	80.59	12.5	6.95	6.2	3.45	6.2	3.45	39.25	-16759 mdeg cm2/(dmol × res)	-24786 mdeg cm2/(dmol × res)	-10222 mdeg cm2/(dmol × res)	-6537	-14564	39.00	58.75	6.2	3.45	3.1	1.72
Ac-RWARRWARWWRR-NH2 [6c]	110	58.41	> 100	> 53.10	100	53.10	50	26.55	34.61	-18280 mdeg cm2/(dmol × res)	-20250 mdeg cm2/(dmol × res)	-10947 mdeg cm2/(dmol × res)	-7332	-9303	40.11	45.93	100	53.10	50	26.55
Ac-RWIRRWIRWWRR-NH2 [7c]	40	20.33	25	12.70	12.5	6.35	6.2	3.15	40.63	-10279 mdeg cm2/(dmol × res)	-19297 mdeg cm2/(dmol × res)	-3192 mdeg cm2/(dmol × res)	-7087	-16105	68.94	83.45	6.2	3.15	6.2	3.15
Ac-RWLRRWLRWWRR-NH2 [8c]	30	15.25	12.5	6.35	12.5	6.35	6.2	3.15	41.20	-13735 mdeg cm2/(dmol × res)	-19930 mdeg cm2/(dmol × res)	-8173 mdeg cm2/(dmol × res)	-5562	-11757	40.49	58.99	12.5	6.35	6.2	3.15
WRRWWRR-NH2 [1c]	> 500	> 416.52	> 100	> 83.30	> 100	> 83.30	100	83.30		-4646 mdeg cm2/(dmol × res)	-3092 mdeg cm2/(dmol × res)	-2638 mdeg cm2/(dmol × res)	-2008	-454	43.22	14.68	> 100	> 83.30	100	83.30

From publication PMC9841524, “Structure-Based Rational Design of Small α-Helical Peptides with Broad-Spectrum Activity against Multidrug-Resistant Pathogens” (Journal of Medicinal Chemistry, 2022)
